According to PubChem BioAssay AID192 (DTP/NCI, 2004):
“And” between values parts separate entries of the source, which are not always exact repeats. Identical values can stand only once. Toxic doses and inconclusive results are not listed.

Tested on: BDF1 mice, B16 melanoma ip, median survival T/C
Assay: NCI In Vivo Anticancer Drug Screen. Data for tumor model B16 Melanoma (intraperitoneal) in B6D2F1 (BDF1) mice
Conditions: endpoint: median survival time, higher = longer survival
Summary of the method: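 Values are ratios of treated (T) to vehicle-control (C) measurements of survival or tumor size in tumor-bearing mice.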

[1] = dose: 100.0 mg/kg/injection, schedule: Q01DX009 (ip), vehicle: saline with Tween-80
[2] = dose: 200.0 mg/kg/injection, schedule: Q01DX009 (ip), vehicle: saline with Tween-80
[3] = dose: 50.0 mg/kg/injection, schedule: Q01DX009 (ip), vehicle: saline with Tween-80
[4] = dose: 25.0 mg/kg/injection, schedule: Q01DX009 (ip), vehicle: saline with Tween-80
[5] = dose: 12.5 mg/kg/injection, schedule: Q01DX009 (ip), vehicle: saline with Tween-80
[6] = dose: 100.0 mg/kg/injection, schedule: Q01DX009 (ip), vehicle: Klucel (hydroxypropylcellulose) (HPC)
[7] = dose: 25.0 mg/kg/injection, schedule: Q01DX009 (ip), vehicle: Klucel (hydroxypropylcellulose) (HPC)
[8] = dose: 50.0 mg/kg/injection, schedule: Q01DX009 (ip), vehicle: Klucel (hydroxypropylcellulose) (HPC)
[9] = dose: 6.25 mg/kg/injection, schedule: Q01DX009 (ip), vehicle: saline with Tween-80

CC(=O)OC1C(O)C(C)OC(OC2C(OC(=O)C3CCC4C(C3)OC3(CC(OC(=O)/C=C/c5ccccc5)C(C)CO3)C43CO3)OC(C)C(O)C2OC(C)=O)C1O (centres undefined)
T/C (dose: 0.5 mg/kg/injection, schedule: Q01DX009 (ip), vehicle: saline + alcohol): 110 % of control | T/C (dose: 1.0 mg/kg/injection, schedule: Q01DX009 (ip), vehicle: saline + alcohol): 120 % of control | T/C (dose: 8.0 mg/kg/injection, schedule: Q01DX009 (ip), vehicle: saline + alcohol): 152 % of control and 158 % of control | T/C (dose: 16.0 mg/kg/injection, schedule: Q01DX009 (ip), vehicle: saline + alcohol): 151 % of control

CC(C)NCC(O)COc1cccc2ccccc12 (centres undefined)
T/C (dose: 4.0 mg/kg/injection, schedule: Q01DX009 (ip), vehicle: Klucel (hydroxypropylcellulose) (HPC)): 99 % of control and 112 % of control | T/C (dose: 8.0 mg/kg/injection, schedule: Q01DX009 (ip), vehicle: Klucel (hydroxypropylcellulose) (HPC)): 101 % of control | T/C (dose: 16.0 mg/kg/injection, schedule: Q01DX009 (ip), vehicle: Klucel (hydroxypropylcellulose) (HPC)): 98 % of control and 108 % of control | T/C (dose: 32.0 mg/kg/injection, schedule: Q01DX009 (ip), vehicle: Klucel (hydroxypropylcellulose) (HPC)): 91 % of control and 95 % of control | T/C (dose: 64.0 mg/kg/injection, schedule: Q01DX009 (ip), vehicle: Klucel (hydroxypropylcellulose) (HPC)): 97 % of control and 101 % of control

Cc1c(Cl)ccc2c(C(O)CBr)cc(-c3ccccc3)nc12 (centres undefined)
T/C [1]: 91 % of control | T/C [2]: 87 % of control

CN(C)CCCc1c2ccccc2nc2ccc(Cl)cc12
T/C (dose: 12.5 mg/kg/injection, schedule: Q04DX003 (ip), vehicle: saline): 117 % of control | T/C (dose: 25.0 mg/kg/injection, schedule: Q04DX003 (ip), vehicle: saline): 114 % of control | T/C (dose: 50.0 mg/kg/injection, schedule: Q04DX003 (ip), vehicle: saline): 108 % of control

CC(C)(O)C(I)C[n+]1ccccc1 (centres undefined)
T/C (dose: 100.0 mg/kg/injection, schedule: Q04DX003 (ip), vehicle: saline): 109 % of control | T/C (dose: 200.0 mg/kg/injection, schedule: Q04DX003 (ip), vehicle: saline): 101 % of control | T/C (dose: 400.0 mg/kg/injection, schedule: Q04DX003 (ip), vehicle: saline): 114 % of control

CC(=O)OCC(OC(C)=O)C(OC(C)=O)C(OC(C)=O)C(C#N)OC(C)=O (centres undefined)
T/C (dose: 100.0 mg/kg/injection, schedule: Q01DX005 (ip), vehicle: saline with Tween-80): 104 % of control | T/C (dose: 100.0 mg/kg/injection, schedule: Q04DX003 (ip), vehicle: saline with Tween-80): 86 % of control | T/C (dose: 200.0 mg/kg/injection, schedule: Q01DX005 (ip), vehicle: saline with Tween-80): 100 % of control | T/C (dose: 200.0 mg/kg/injection, schedule: Q04DX003 (ip), vehicle: saline with Tween-80): 97 % of control | T/C (dose: 400.0 mg/kg/injection, schedule: Q01DX005 (ip), vehicle: saline with Tween-80): 97 % of control

Clc1ncnc2nc[nH]c12
T/C (dose: 50.0 mg/kg/injection, schedule: Q01DX009 (ip), vehicle: saline sonified): 92 % of control | T/C [3]: 86 % of control | T/C (dose: 100.0 mg/kg/injection, schedule: Q01DX009 (ip), vehicle: saline sonified): 97 % of control | T/C [1]: 97 % of control | T/C (dose: 200.0 mg/kg/injection, schedule: Q01DX009 (ip), vehicle: saline sonified): 110 % of control

Cc1ccc(C)c(C(=O)CCCCl)c1
T/C [4]: 118 % of control | T/C [3]: 97 % of control | T/C [1]: 113 % of control

O=C(NC1CCCCC1)OCc1c(COC(=O)NC2CCCCC2)c(-c2ccc(Cl)c(Cl)c2)n2c1CCC2
T/C [5]: 169 % of control | T/C [4]: 214 % of control | T/C (dose: 25.0 mg/kg/injection, schedule: Q01DX009 (oral), vehicle: saline with Tween-80): 107 % of control | T/C [3]: 290 % of control | T/C (dose: 50.0 mg/kg/injection, schedule: Q01DX009 (oral), vehicle: saline with Tween-80): 102 % of control | T/C [1]: 304 % of control | T/C (dose: 100.0 mg/kg/injection, schedule: Q01DX009 (oral), vehicle: saline with Tween-80): 106 % of control | T/C [2]: 153 % of control | T/C (dose: 200.0 mg/kg/injection, schedule: Q01DX009 (oral), vehicle: saline with Tween-80): 107 % of control | T/C (dose: 400.0 mg/kg/injection, schedule: Q01DX009 (ip), vehicle: saline with Tween-80): 91 % of control | T/C (dose: 400.0 mg/kg/injection, schedule: Q01DX009 (oral), vehicle: saline with Tween-80): 106 % of control | T/C (dose: 800.0 mg/kg/injection, schedule: Q01DX009 (oral), vehicle: saline with Tween-80): 102 % of control

CCCCC(CC)C(O)C1CCCCC1O (centres undefined)
T/C [6]: 100 % of control | T/C (dose: 200.0 mg/kg/injection, schedule: Q01DX009 (ip), vehicle: Klucel (hydroxypropylcellulose) (HPC)): 89 % of control

CC(=O)NNC(=O)c1ccccc1
T/C (dose: 12.5 mg/kg/injection, schedule: Q#A X018 (ip), vehicle: water): 93 % of control | T/C (dose: 25.0 mg/kg/injection, schedule: Q#A X018 (ip), vehicle: water): 93 % of control | T/C (dose: 50.0 mg/kg/injection, schedule: Q#A X018 (ip), vehicle: water): 106 % of control

COC1=C(N=[N+]=[N-])C(=O)C(OC)=C(N=[N+]=[N-])C1=O
T/C (dose: 12.5 mg/kg/injection, schedule: Q01DX009 (ip), vehicle: Klucel (hydroxypropylcellulose) (HPC)): 111 % of control | T/C [7]: 95 % of control | T/C [8]: 94 % of control | T/C [6]: 91 % of control

O=C(OC1C(O)OC2COC(=O)c3cc(O)c(O)c(O)c3-c3c(cc(O)c(O)c3O)C(=O)OC2C1O)c1cc(O)c(O)c(O)c1 (centres undefined)
T/C (dose: 3.75 mg/kg/injection, schedule: Q01DX009 (ip), vehicle: saline): 99 % of control | T/C (dose: 7.5 mg/kg/injection, schedule: Q01DX009 (ip), vehicle: saline): 112 % of control

CCCCCCCCCCCCNCCC#N
T/C [9]: 100 % of control | T/C [5]: 92 % of control | T/C [4]: 91 % of control and 100 % of control | T/C [3]: 89 % of control

O=C(Nc1nccs1)C(F)(F)F
T/C (dose: 50.0 mg/kg/injection, schedule: Q01DX009 (ip), vehicle: saline): 98 % of control | T/C (dose: 100.0 mg/kg/injection, schedule: Q01DX009 (ip), vehicle: saline): 106 % of control | T/C (dose: 200.0 mg/kg/injection, schedule: Q01DX009 (ip), vehicle: saline): 103 % of control | T/C (dose: 400.0 mg/kg/injection, schedule: Q01DX009 (ip), vehicle: saline): 97 % of control

COc1cccc(OC)c1OC(=O)/C=C\C(=O)Oc1c(OC)cccc1OC
T/C (dose: 75.0 mg/kg/injection, schedule: Q01DX009 (ip), vehicle: Klucel (hydroxypropylcellulose) (HPC)): 100 % of control | T/C (dose: 150.0 mg/kg/injection, schedule: Q01DX009 (ip), vehicle: Klucel (hydroxypropylcellulose) (HPC)): 100 % of control | T/C (dose: 300.0 mg/kg/injection, schedule: Q01DX009 (ip), vehicle: Klucel (hydroxypropylcellulose) (HPC)): 100 % of control

CC[P+](c1ccccc1)(c1ccccc1)c1ccccc1
T/C (dose: 1.25 mg/kg/injection, schedule: Q04DX003 (ip), vehicle: saline): 97 % of control | T/C (dose: 2.5 mg/kg/injection, schedule: Q04DX003 (ip), vehicle: saline): 93 % of control | T/C (dose: 5.0 mg/kg/injection, schedule: Q04DX003 (ip), vehicle: saline): 95 % of control

COC(=O)c1ccccc1NC(c1ccccn1)c1ccc2cccnc2c1O (centres undefined)
T/C [7]: 94 % of control | T/C [8]: 108 % of control | T/C [6]: 98 % of control

Cn1c(N)c(N=O)c(=O)n(C)c1=O
T/C (dose: 90.0 mg/kg/injection, schedule: Q01DX009 (ip), vehicle: saline with Tween-80): 100 % of control | T/C (dose: 180.0 mg/kg/injection, schedule: Q01DX009 (ip), vehicle: saline with Tween-80): 90 % of control | T/C (dose: 360.0 mg/kg/injection, schedule: Q01DX009 (ip), vehicle: saline with Tween-80): 100 % of control

O=C(N/N=C\c1cc(Br)cc(Br)c1O)N/N=C/c1cc(Br)cc(Br)c1O
T/C [9]: 108 % of control and 120 % of control | T/C (dose: 6.25 mg/kg/injection, schedule: Q01DX009 (ip), vehicle: sodium bicarbonate): 96 % of control | T/C [5]: 104 % of control | T/C (dose: 12.5 mg/kg/injection, schedule: Q01DX009 (ip), vehicle: sodium bicarbonate): 107 % of control | T/C (dose: 25.0 mg/kg/injection, schedule: Q01DX009 (ip), vehicle: sodium bicarbonate): 107 % of control | T/C (dose: 50.0 mg/kg/injection, schedule: Q01DX009 (ip), vehicle: sodium bicarbonate): 107 % of control | T/C (dose: 100.0 mg/kg/injection, schedule: Q01DX009 (ip), vehicle: sodium bicarbonate): 118 % of control | T/C (dose: 200.0 mg/kg/injection, schedule: Q01DX009 (ip), vehicle: sodium bicarbonate): 122 % of control

C=C(Br)CNC(=O)CCC
T/C (dose: 2.5 mg/kg/injection, schedule: Q01DX009 (ip), vehicle: saline): 103 % of control | T/C (dose: 5.0 mg/kg/injection, schedule: Q01DX009 (ip), vehicle: saline): 112 % of control | T/C (dose: 10.0 mg/kg/injection, schedule: Q01DX009 (ip), vehicle: saline): 104 % of control
